Results published in ChEMBL document CHEMBL3745645, “Synthesis, in vitro antitumor activity, dihydrofolate reductase inhibition, DNA intercalation and structure-activity relationship studies of 1,3,5-triazine analogues” (Bioorg Med Chem Lett, 2016).
Calls of active or inactive are those of the source. No cut-off for these calls is given here.

Assays:
Assay type in all cases: functional
[1] = Cytotoxicity against human OVCAR5 cells at 10 uM after 48 hrs by SRB assay; conditions: OVCAR-5, 48 h, read-out: GI
[2] = Cytotoxicity against human IGROV1 cells at 10 uM after 48 hrs by SRB assay; conditions: IGROV-1, 48 h, read-out: GI
[3] = Cytotoxicity against human SNB19 cells at 10 uM after 48 hrs by SRB assay; conditions: SNB-19, 48 h, read-out: GI
ACHN = assay: Cytotoxicity against human ACHN cells at 10 uM after 48 hrs by SRB assay; conditions: read-out: GI
[4] = Cytotoxicity against human HL-60(TB) cells at 10 uM after 48 hrs by SRB assay; conditions: HL-60, 48 h, read-out: GI
[5] = Cytotoxicity against human MOLT4 cells at 10 uM after 48 hrs by SRB assay; conditions: MOLT-4, 48 h, read-out: GI
[6] = Cytotoxicity against human HCT15 cells at 10 uM after 48 hrs by SRB assay; conditions: HCT-15, 48 h, read-out: GI
SN12C = assay: Cytotoxicity against human SN12C cells at 10 uM after 48 hrs by SRB assay; conditions: read-out: GI
SK-MEL-5 = assay: Cytotoxicity against human SK-MEL-5 cells at 10 uM after 48 hrs by SRB assay; conditions: SK-MEL-5, 48 h, read-out: GI
[7] = Cytotoxicity against human RPMI8226 cells at 10 uM after 48 hrs by SRB assay; conditions: RPMI-8226, 48 h, read-out: GI
[8] = Cytotoxicity against human RXF393 cells at 10 uM after 48 hrs by SRB assay; conditions: RXF 393, 48 h, read-out: GI
COLO 205 = assay: Cytotoxicity against human COLO205 cells at 10 uM after 48 hrs by SRB assay
[9] = Cytotoxicity against human Caki1 cells at 10 uM after 48 hrs by SRB assay; conditions: CAKI-1, 48 h, read-out: GI
[10] = Cytotoxicity against human HOP92 cells at 10 uM after 48 hrs by SRB assay; conditions: HOP-92, 48 h, read-out: GI
MDA-MB-231 = assay: Cytotoxicity against human MDA-MB-231 cells at 10 uM after 48 hrs by SRB assay; conditions: MDA-MB-231, 48 h, read-out: GI
[11] = Cytotoxicity against human UACC257 cells at 10 uM after 48 hrs by SRB assay; conditions: UACC-257, 48 h, read-out: GI
[12] = Cytotoxicity against human SNB75 cells at 10 uM after 48 hrs by SRB assay; conditions: SNB-75, 48 h, read-out: GI
[13] = Cytotoxicity against human PC3 cells at 10 uM after 48 hrs by SRB assay; conditions: PC-3, 48 h, read-out: GI
[14] = Cytotoxicity against human SF295 cells at 10 uM after 48 hrs by SRB assay; conditions: SF-295, 48 h, read-out: GI
[15] = Cytotoxicity against human DU145 cells at 10 uM after 48 hrs by SRB assay; conditions: DU-145, 48 h, read-out: GI
T47D = assay: Cytotoxicity against human T47D cells at 10 uM after 48 hrs by SRB assay; conditions: read-out: GI
[16] = Cytotoxicity against human UACC62 cells at 10 uM after 48 hrs by SRB assay; conditions: UACC-62, 48 h, read-out: GI
[17] = Cytotoxicity against human HCC2998 cells at 10 uM after 48 hrs by SRB assay; conditions: HCC 2998, 48 h, read-out: GI
M14 = assay: Cytotoxicity against human M14 cells at 10 uM after 48 hrs by SRB assay
[18] = Cytotoxicity against human SF268 cells at 10 uM after 48 hrs by SRB assay; conditions: SF-268, 48 h, read-out: GI
[19] = Cytotoxicity against human LOXIMVI cells at 10 uM after 48 hrs by SRB assay; conditions: LOX IMVI, read-out: GI
SR = assay: Cytotoxicity against human SR cells at 10 uM after 48 hrs by SRB assay; conditions: read-out: GI
MDA-MB-435 = assay: Cytotoxicity against human MDA-MB-435 cells at 10 uM after 48 hrs by SRB assay; conditions: MDA-MB-435, 48 h, read-out: GI
[20] = Cytotoxicity against human HOP62 cells at 10 uM after 48 hrs by SRB assay; conditions: HOP-62, 48 h, read-out: GI
[21] = Cytotoxicity against human SW620 cells at 10 uM after 48 hrs by SRB assay; conditions: SW-620, 48 h, read-out: GI
CCRF-CEM = assay: Cytotoxicity against human CCRF-CEM cells at 10 uM after 48 hrs by SRB assay; conditions: read-out: GI
786-0 = assay: Cytotoxicity against human 786-0 cells at 10 uM after 48 hrs by SRB assay; conditions: 786-0, 48 h, read-out: GI
[22] = Cytotoxicity against human OVCAR8 cells at 10 uM after 48 hrs by SRB assay; conditions: OVCAR-8, 48 h, read-out: GI
A498 = assay: Cytotoxicity against human A498 cells at 10 uM after 48 hrs by SRB assay; conditions: A498, 48 h, read-out: GI
[23] = Cytotoxicity against human OVCAR4 cells at 10 uM after 48 hrs by SRB assay; conditions: OVCAR-4, 48 h, read-out: GI
A549 = assay: Cytotoxicity against human A549 cells at 10 uM after 48 hrs by SRB assay; conditions: A549, 48 h, read-out: GI
NCI-H226 = assay: Cytotoxicity against human NCI-H226 cells at 10 uM after 48 hrs by SRB assay; conditions: NCI-H226, 48 h, read-out: GI
[24] = Cytotoxicity against human BT549 cells at 10 uM after 48 hrs by SRB assay; conditions: BT-549, 48 h, read-out: GI
MDA-MB-468 = assay: Cytotoxicity against human MDA-MB-468 cells at 10 uM after 48 hrs by SRB assay; conditions: MDA-MB-468, 48 h, read-out: GI
MCF7 = assay: Cytotoxicity against human MCF7 cells at 10 uM after 48 hrs by SRB assay; conditions: MCF7, 48 h, read-out: GI
[25] = Cytotoxicity against human SKOV3 cells at 10 uM after 48 hrs by SRB assay; conditions: SK-OV-3, 48 h, read-out: GI
KM12 = assay: Cytotoxicity against human KM12 cells at 10 uM after 48 hrs by SRB assay; conditions: KM12, 48 h, read-out: GI
K562 = assay: Cytotoxicity against human K562 cells at 10 uM after 48 hrs by SRB assay; conditions: K562, 48 h, read-out: GI
[26] = Cytotoxicity against human NCI-ADR-RES cells at 10 uM after 48 hrs by SRB assay; conditions: read-out: GI
[27] = Cytotoxicity against human HCT116 cells at 10 uM after 48 hrs by SRB assay; conditions: HCT-116, 48 h, read-out: GI
NCI-H460 = assay: Cytotoxicity against human NCI-H460 cells at 10 uM after 48 hrs by SRB assay; conditions: NCI-H460, 48 h, read-out: GI
NCI-H522 = assay: Cytotoxicity against human NCI-H522 cells at 10 uM after 48 hrs by SRB assay
[28] = Cytotoxicity against human Hs 578T cells at 10 uM after 48 hrs by SRB assay; conditions: read-out: GI
[29] = Cytotoxicity against human UO31 cells at 10 uM after 48 hrs by SRB assay; conditions: UO-31, 48 h, read-out: GI
[30] = Cytotoxicity against human SF539 cells at 10 uM after 48 hrs by SRB assay; conditions: SF-539, 48 h, read-out: GI
[31] = Cytotoxicity against human OVCAR3 cells at 10 uM after 48 hrs by SRB assay; conditions: OVCAR-3, 48 h, read-out: GI
SK-MEL-2 = assay: Cytotoxicity against human SK-MEL-2 cells at 10 uM after 48 hrs by SRB assay
Malme-3M = assay: Cytotoxicity against human MALME-3M cells at 10 uM after 48 hrs by SRB assay
SK-MEL-28 = assay: Cytotoxicity against human SK-MEL-28 cells at 10 uM after 48 hrs by SRB assay
HT-29 = assay: Cytotoxicity against human HT-29 cells at 10 uM after 48 hrs by SRB assay; conditions: HT-29, 48 h, read-out: GI
[32] = Cytotoxicity against human TK10 cells at 10 uM after 48 hrs by SRB assay; conditions: TK-10, 48 h, read-out: GI

SMILES: Cc1nc2cc(Nc3nc(Cl)nc(Nc4ccc(F)cc4)n3)ccc2n1Cc1ccccc1
- inhibition of growth at 10 µM [1]: 3.73%
- inhibition of growth at 10 µM [2]: 17%
- inhibition of growth at 10 µM [3]: 7.64%
- inhibition of growth at 10 µM (ACHN): 63.8%
- inhibition of growth at 10 µM [4]: 46.8%
- inhibition of growth at 10 µM [5]: 9.41%
- inhibition of growth at 10 µM [6]: 27.9%
- inhibition of growth at 10 µM (SN12C): 22.1%
- inhibition of growth at 10 µM (SK-MEL-5): 7.59%
- inhibition of growth at 10 µM [7]: 84.7%
- inhibition of growth at 10 µM [8]: 22.9%
- growth inhibition (GI) (COLO 205): inactive
- inhibition of growth at 10 µM [9]: 12.3%
- inhibition of growth at 10 µM [10]: 49.3%
- inhibition of growth at 10 µM (MDA-MB-231): 17.9%
- inhibition of growth at 10 µM [11]: 10.3%
- inhibition of growth at 10 µM [12]: 10%
- inhibition of growth at 10 µM [13]: 21.2%
- inhibition of growth at 10 µM [14]: 3.61%
- inhibition of growth at 10 µM [15]: 36%
- inhibition of growth at 10 µM (T47D): 43%
- inhibition of growth at 10 µM [16]: 17.6%
- inhibition of growth at 10 µM [17]: 5.54%
- growth inhibition (GI) (M14): inactive
- inhibition of growth at 10 µM [18]: 8.93%
- inhibition of growth at 10 µM [19]: 56.7%
- inhibition of growth at 10 µM (SR): 42.5%
- inhibition of growth at 10 µM (MDA-MB-435): 4.44%
- inhibition of growth at 10 µM [20]: 11.6%
- inhibition of growth at 10 µM [21]: 15.2%
- inhibition of growth at 10 µM (CCRF-CEM): 21.5%
- inhibition of growth at 10 µM (786-0): 67%
- inhibition of growth at 10 µM [22]: 18.5%
- inhibition of growth at 10 µM (A498): 30.6%
- inhibition of growth at 10 µM [23]: 14.2%
- inhibition of growth at 10 µM (A549): 13.3%
- inhibition of growth at 10 µM (NCI-H226): 19.6%
- inhibition of growth at 10 µM [24]: 9.39%
- inhibition of growth at 10 µM (MDA-MB-468): 23.8%
- inhibition of growth at 10 µM (MCF7): 38.5%
- inhibition of growth at 10 µM [25]: 4.12%
- inhibition of growth at 10 µM (KM12): 30.8%
- inhibition of growth at 10 µM (K562): 14.8%
- inhibition of growth at 10 µM [26]: 4.36%
- inhibition of growth at 10 µM [27]: 96.1%
- inhibition of growth at 10 µM (NCI-H460): 12%
- growth inhibition (GI) (NCI-H522): Active
- inhibition of growth at 10 µM [28]: 20.5%
- inhibition of growth at 10 µM [29]: 19.3%
- inhibition of growth at 10 µM [30]: 29.8%
- inhibition of growth at 10 µM [31]: 5.75%
- growth inhibition (GI) (SK-MEL-2): inactive
- growth inhibition (GI) (Malme-3M): inactive
- growth inhibition (GI) (SK-MEL-28): inactive
- inhibition of growth at 10 µM (HT-29): 5.46%
- inhibition of growth at 10 µM [32]: 41.5%
